According to ChEMBL document CHEMBL1201862, “PubChem BioAssay data set” (2004):
Values joined by “and” are separate entries in the source; they are usually repeats but may differ in a detail not shown here. Identical values can stand only once.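 Compound exposure: 48 hours, 5 concentrations, 96-well plates. GI50 is the concentration that inhibits growth by half.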 Active and inactive are the calls of the source. Rule as the data show it: active = GI50 up to about 1.1 µM and inactive = higher.

How the values were obtained:
Assay in all cases: DTP human tumour cell line panel, 48 h
[1] = test system: UO-31
[2] = test system: MDA-N
[3] = test system: MDA-MB-231
[4] = test system: A549
[5] = test system: CAKI-1
[6] = test system: RPMI-8226
[7] = test system: T47D
[8] = test system: SK-OV-3
[9] = test system: SF-539
[10] = test system: MCF7
[11] = test system: Hs-578T
[12] = test system: EKVX
[13] = test system: SNB-19
[14] = test system: MOLT-4
[15] = test system: NCI-H522
[16] = test system: NCI-H460
[17] = test system: Malme-3M
[18] = test system: IGROV-1
[19] = test system: HOP-62
[20] = test system: BT-549
[21] = test system: PC-3
[22] = test system: SN12C
[23] = test system: KM12
[24] = test system: SF-295
[25] = test system: NCI-H226
[26] = test system: SR
[27] = test system: LOX IMVI
[28] = test system: SW-620
[29] = test system: COLO 205
[30] = test system: HCC 2998
[31] = test system: OVCAR-5
[32] = test system: HT-29
[33] = test system: UACC-62
[34] = test system: SNB-75
[35] = test system: SK-MEL-5
[36] = test system: TK-10
[37] = test system: RXF 393
[38] = test system: OVCAR-4
[39] = test system: NCI-H23
[40] = test system: K562
[41] = test system: A498
[42] = test system: 786-0
[43] = test system: DU-145
[44] = test system: HOP-92
[45] = test system: HCT-116
[46] = test system: UACC-257
[47] = test system: ACHN
[48] = test system: M14
[49] = test system: HCT-15
[50] = test system: NCI/ADR-RES
[51] = test system: OVCAR-3
[52] = test system: U-251
[53] = test system: MDA-MB-435
[54] = test system: SK-MEL-2
[55] = test system: CCRF-CEM
[56] = test system: OVCAR-8
[57] = test system: HL-60
[58] = test system: SK-MEL-28
[59] = test system: SF-268

SMILES: COc1ccc(-c2c3c(n(C4OC(COC(C)=O)C(OC(C)=O)C(OC(C)=O)C4OC(C)=O)c(=S)c2C#N)CC(C)(C)CC3=O)cc1 (stereo unspecified)
- GI50 [1]: > 100 µM (inactive) and 55.3 µM (inactive)
- GI50 [2]: 33 µM (inactive) and 65.8 µM (inactive)
- GI50 [3]: 37.9 µM (inactive) and 35.6 µM (inactive)
- GI50 [4]: 65.5 µM (inactive)
- GI50 [5]: 59.2 µM (inactive)
- GI50 [6]: 32.6 µM (inactive) and 26.5 µM (inactive)
- GI50 [7]: 40.9 µM (inactive) and 64.1 µM (inactive)
- GI50 [8]: 96.2 µM (inactive)
- GI50 [9]: 35.2 µM (inactive) and 22.8 µM (inactive)
- GI50 [10]: 57.3 µM (inactive) and 28.8 µM (inactive)
- GI50 [11]: 40.4 µM (inactive) and 36.2 µM (inactive)
- GI50 [12]: 26.6 µM (inactive)
- GI50 [13]: 97.3 µM (inactive)
- GI50 [14]: 20.7 µM (inactive) and 27.8 µM (inactive)
- GI50 [15]: 43.5 µM (inactive) and 22.6 µM (inactive)
- GI50 [16]: > 100 µM (inactive) and 61.4 µM (inactive)
- GI50 [17]: > 100 µM (inactive) and 56.2 µM (inactive)
- GI50 [18]: > 100 µM (inactive) and 74.5 µM (inactive)
- GI50 [19]: > 100 µM (inactive)
- GI50 [20]: 62.1 µM (inactive) and 32.1 µM (inactive)
- GI50 [21]: 59.6 µM (inactive) and 34.4 µM (inactive)
- GI50 [22]: > 100 µM (inactive) and 55.3 µM (inactive)
- GI50 [23]: 74.8 µM (inactive)
- GI50 [24]: 78 µM (inactive)
- GI50 [25]: 55.5 µM (inactive) and 44.8 µM (inactive)
- GI50 [26]: 24.9 µM (inactive) and 37.3 µM (inactive)
- GI50 [27]: 27.5 µM (inactive) and 29.3 µM (inactive)
- GI50 [28]: 37.1 µM (inactive)
- GI50 [29]: > 100 µM (inactive) and 50.4 µM (inactive)
- GI50 [30]: 47.6 µM (inactive) and 61.1 µM (inactive)
- GI50 [31]: 61 µM (inactive)
- GI50 [32]: 33.1 µM (inactive) and 58.2 µM (inactive)
- GI50 [33]: 30.3 µM (inactive) and 33 µM (inactive)

SMILES: CC1C=CN(N(C)C)C2=C1C(=O)c1cnccc1C2=O (stereo unspecified)
- GI50 [34]: 315 nM (active)
- GI50 [35]: 0.274 µM (active)
- GI50 [1]: 167 nM (active)
- GI50 [36]: 513 nM (active)
- GI50 [2]: 133 nM (active)
- GI50 [37]: 0.408 µM (active)
- GI50 [38]: 662 nM (active)
- GI50 [39]: 261 nM (active)
- GI50 [40]: 0.205 µM (active)
- GI50 [4]: 0.331 µM (active)
- GI50 [5]: 0.108 µM (active)
- GI50 [41]: 1.29 µM (inactive)
- GI50 [42]: 0.195 µM (active)
- GI50 [43]: 0.372 µM (active)
- GI50 [6]: 531 nM (active)
- GI50 [7]: 1.83 µM (inactive)
- GI50 [44]: 2.07 µM (inactive)
- GI50 [8]: 0.682 µM (active)
- GI50 [45]: 306 nM (active)
- GI50 [46]: 212 nM (active)
- GI50 [9]: 293 nM (active)
- GI50 [10]: 274 nM (active)
- GI50 [47]: 251 nM (active)
- GI50 [48]: 424 nM (active)
- GI50 [11]: 693 nM (active)
- GI50 [12]: 0.59 µM (active)
- GI50 [49]: 0.231 µM
- GI50 [50]: 0.927 µM (active)
- GI50 [13]: 0.832 µM (active)
- GI50 [51]: 792 nM (active)
- GI50 [52]: 0.417 µM (active)
- GI50 [53]: 186 nM (active)
- GI50 [14]: 1.76 µM (inactive)
- GI50 [15]: 170 nM (active)
- GI50 [16]: 148 nM (active)
- GI50 [17]: 334 nM (active)
- GI50 [18]: 244 nM (active)
- GI50 [19]: 0.349 µM (active)
- GI50 [54]: 1.63 µM (inactive)
- GI50 [20]: 355 nM (active)
- GI50 [55]: 2.09 µM (inactive)
- GI50 [56]: 0.883 µM (active)
- GI50 [21]: 1.49 µM (inactive)
- GI50 [57]: 1.47 µM (inactive)
- GI50 [22]: 168 nM (active)
- GI50 [23]: 1.24 µM (inactive)
- GI50 [24]: 0.676 µM (active)
- GI50 [25]: 508 nM (active)
- GI50 [26]: 15.6 nM (active)
- GI50 [27]: 129 nM (active)
- GI50 [28]: 0.395 µM (active)
- GI50 [29]: 1.12 µM (inactive)
- GI50 [30]: 0.589 µM (active)
- GI50 [58]: 453 nM (active)
- GI50 [59]: 0.975 µM (active)
- GI50 [31]: 1.37 µM (inactive)
- GI50 [32]: 617 nM (active)
- GI50 [33]: 167 nM (active)

SMILES: COc1cccc(C=C2N=C(C)N(n3c(-c4ccccc4)nc4ccccc4c3=O)C2=O)c1
- GI50 [34]: 56100 nM (inactive)
- GI50 [35]: > 100 µM (inactive)
- GI50 [1]: > 100000 nM (inactive)
- GI50 [36]: > 100000 nM (inactive)
- GI50 [2]: > 100000 nM (inactive)
- GI50 [3]: > 100 µM (inactive)
- GI50 [39]: > 100000 nM (inactive)
- GI50 [40]: > 100 µM (inactive)
- GI50 [4]: > 100 µM (inactive)
- GI50 [5]: > 100 µM (inactive)
- GI50 [41]: > 100 µM (inactive)
- GI50 [42]: > 100 µM (inactive)
- GI50 [43]: > 100 µM (inactive)
- GI50 [6]: 59000 nM (inactive)
- GI50 [7]: > 100 µM (inactive)
- GI50 [8]: > 100 µM (inactive)
- GI50 [45]: > 100000 nM (inactive)
- GI50 [46]: > 100000 nM (inactive)
- GI50 [9]: > 100000 nM (inactive)
- GI50 [10]: 83400 nM (inactive)
- GI50 [47]: > 100000 nM (inactive)
- GI50 [48]: > 100000 nM (inactive)
- GI50 [11]: > 100000 nM (inactive)
- GI50 [12]: > 100 µM (inactive)
- GI50 [49]: 77.1 µM
- GI50 [13]: > 100 µM (inactive)
- GI50 [53]: > 100000 nM (inactive)
- GI50 [14]: 94.4 µM (inactive)
- GI50 [15]: > 100000 nM (inactive)
- GI50 [16]: > 100000 nM (inactive)
- GI50 [18]: > 100000 nM (inactive)
- GI50 [19]: > 100 µM (inactive)
- GI50 [20]: > 100000 nM (inactive)
- GI50 [55]: 57.5 µM (inactive)
- GI50 [56]: > 100 µM (inactive)
- GI50 [21]: > 100 µM (inactive)
- GI50 [57]: > 100 µM (inactive)
- GI50 [22]: > 100000 nM (inactive)
- GI50 [23]: > 100 µM (inactive)
- GI50 [24]: 95.5 µM (inactive)
- GI50 [25]: > 100000 nM (inactive)
- GI50 [26]: 64900 nM (inactive)
- GI50 [27]: > 100000 nM (inactive)
- GI50 [28]: > 100 µM (inactive)
- GI50 [29]: > 100 µM (inactive)
- GI50 [30]: > 100 µM (inactive)
- GI50 [58]: > 100000 nM (inactive)
- GI50 [59]: > 100 µM (inactive)
- GI50 [32]: > 100000 nM (inactive)
- GI50 [33]: > 100000 nM (inactive)

SMILES: Cc1nc2c(Br)cc(Br)cc2c(=O)n1-c1ccccc1NC1OCC(O)C(O)C1O (stereo unspecified)
- GI50 [34]: 18.8 µM (inactive) and 33 µM (inactive)
- GI50 [1]: 42.2 µM (inactive) and 30.5 µM (inactive)
- GI50 [36]: 23.4 µM (inactive) and 40.9 µM (inactive)
- GI50 [2]: 33.7 µM (inactive) and 41.4 µM (inactive)
- GI50 [38]: 24.1 µM (inactive) and 39.1 µM (inactive)
- GI50 [3]: 27.2 µM (inactive) and 45.7 µM (inactive)
- GI50 [39]: 20.7 µM (inactive) and 38 µM (inactive)
- GI50 [5]: 45.2 µM (inactive) and 28.4 µM (inactive)
- GI50 [7]: 44 µM (inactive) and 30.5 µM (inactive)
- GI50 [44]: 19.6 µM (inactive) and 35.8 µM (inactive)
- GI50 [45]: 24.7 µM (inactive) and 16 µM (inactive)
- GI50 [46]: 23.7 µM (inactive) and 44.8 µM (inactive)
- GI50 [47]: 17.2 µM (inactive) and 32.3 µM (inactive)
- GI50 [48]: 21.8 µM (inactive) and 32.7 µM (inactive)
- GI50 [11]: > 25.5 µM (inactive) and 39.7 µM (inactive)
- GI50 [12]: 48.6 µM (inactive) and 39 µM (inactive)
- GI50 [49]: 48.8 µM and 41.1 µM
- GI50 [13]: 40.8 µM (inactive) and 22.9 µM (inactive)
- GI50 [51]: 24.3 µM (inactive) and 20.9 µM (inactive)
- GI50 [53]: 42.1 µM (inactive) and 39.4 µM (inactive)
- GI50 [15]: 19.7 µM (inactive) and 17.4 µM (inactive)
- GI50 [17]: 28.3 µM (inactive) and 37.8 µM (inactive)
- GI50 [18]: 41.4 µM (inactive) and 21.2 µM (inactive)
- GI50 [54]: 38.8 µM (inactive) and 34.3 µM (inactive)
- GI50 [20]: 26.5 µM (inactive) and 29.3 µM (inactive)
- GI50 [55]: 21.5 µM (inactive) and 11.5 µM (inactive)
- GI50 [21]: 33.3 µM (inactive) and 46 µM (inactive)
- GI50 [23]: 24.7 µM (inactive)
- GI50 [27]: 14.6 µM (inactive) and 21.6 µM (inactive)
- GI50 [28]: 28.6 µM (inactive)
- GI50 [29]: 18.6 µM (inactive) and 17.6 µM (inactive)
- GI50 [30]: 33.7 µM (inactive)
- GI50 [58]: 69.2 µM (inactive) and 74.3 µM (inactive)
- GI50 [31]: 44.2 µM (inactive) and 42.7 µM (inactive)
- GI50 [32]: 24.9 µM (inactive) and 15.3 µM (inactive)
